The IC50 is the concentration needed to halve the response being measured. A lower IC50 goes with higher potency.

The results in this text go back to ChEMBL document CHEMBL1154642, “Synthesis and biological evaluation of heterocyclic ring-substituted maslinic acid derivatives as novel inhibitors of protein tyrosine phosphatase 1B” (Bioorg Med Chem Lett, 2009).

Assay [1] concerns the target T1, Tyrosine-protein phosphatase non-receptor type 1 (Homo sapiens, UniProt P18031).
T1 sequence (P18031 whole entry): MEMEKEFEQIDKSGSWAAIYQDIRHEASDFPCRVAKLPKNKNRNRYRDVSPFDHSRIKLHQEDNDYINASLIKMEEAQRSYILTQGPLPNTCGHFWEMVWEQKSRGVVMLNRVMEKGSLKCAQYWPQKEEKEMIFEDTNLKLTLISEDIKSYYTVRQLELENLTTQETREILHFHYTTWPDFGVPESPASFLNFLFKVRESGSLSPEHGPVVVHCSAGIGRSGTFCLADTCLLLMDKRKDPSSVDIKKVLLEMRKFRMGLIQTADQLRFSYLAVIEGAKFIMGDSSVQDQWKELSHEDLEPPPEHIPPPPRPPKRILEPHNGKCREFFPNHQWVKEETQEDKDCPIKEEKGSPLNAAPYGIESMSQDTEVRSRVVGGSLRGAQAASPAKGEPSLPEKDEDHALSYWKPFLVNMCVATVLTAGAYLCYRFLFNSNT
Put plainly: Inhibition of GST-tagged human PTP 1B.

The species named for assay [2] is Homo sapiens. The assay is described as follows: Selectivity, ratio of IC50 for GST-tagged human TCPTP to IC50 for GST-tagged human PTP 1B.
The target of assay [3] is T2, Tyrosine-protein phosphatase non-receptor type 2 (Homo sapiens, UniProt P17706).
T2 sequence (P17706 whole entry): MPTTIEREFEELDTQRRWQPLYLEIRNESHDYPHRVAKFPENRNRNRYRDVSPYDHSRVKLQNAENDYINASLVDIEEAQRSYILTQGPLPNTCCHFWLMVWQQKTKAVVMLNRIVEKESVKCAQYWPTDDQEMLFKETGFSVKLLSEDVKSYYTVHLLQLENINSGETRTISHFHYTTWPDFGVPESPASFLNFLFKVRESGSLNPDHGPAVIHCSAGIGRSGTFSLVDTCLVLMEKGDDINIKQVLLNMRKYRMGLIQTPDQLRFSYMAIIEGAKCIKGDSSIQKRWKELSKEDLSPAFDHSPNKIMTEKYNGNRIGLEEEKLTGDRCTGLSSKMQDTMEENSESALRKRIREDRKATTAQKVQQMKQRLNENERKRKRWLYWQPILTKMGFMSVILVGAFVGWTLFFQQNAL
The assay is described as follows: Inhibition of GST-tagged human TCPTP.

In assay [4] the target is Receptor-type tyrosine-protein phosphatase F (Homo sapiens, UniProt P10586). The assay is described as follows: Inhibition of GST-tagged human LAR.
In assay [5] the target is T3, Tyrosine-protein phosphatase non-receptor type 11 (Homo sapiens, UniProt Q06124).
T3 sequence (Q06124 whole entry): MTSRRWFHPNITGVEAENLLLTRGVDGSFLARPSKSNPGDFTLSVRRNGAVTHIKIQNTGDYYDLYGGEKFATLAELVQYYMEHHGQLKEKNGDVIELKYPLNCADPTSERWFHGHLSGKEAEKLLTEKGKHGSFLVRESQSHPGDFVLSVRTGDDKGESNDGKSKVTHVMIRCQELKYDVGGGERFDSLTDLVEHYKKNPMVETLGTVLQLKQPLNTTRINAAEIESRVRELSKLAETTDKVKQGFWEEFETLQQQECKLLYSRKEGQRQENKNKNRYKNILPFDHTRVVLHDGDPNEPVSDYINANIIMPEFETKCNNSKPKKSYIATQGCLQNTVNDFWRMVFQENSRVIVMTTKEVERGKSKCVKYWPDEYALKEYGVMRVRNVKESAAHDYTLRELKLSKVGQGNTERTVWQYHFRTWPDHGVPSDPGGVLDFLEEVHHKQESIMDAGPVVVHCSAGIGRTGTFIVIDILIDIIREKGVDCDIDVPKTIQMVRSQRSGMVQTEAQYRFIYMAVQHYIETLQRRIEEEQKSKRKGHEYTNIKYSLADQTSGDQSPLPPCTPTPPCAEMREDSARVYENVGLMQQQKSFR
Put plainly: Inhibition of GST-tagged human SHP2.

Assay [6] addresses Tyrosine-protein phosphatase non-receptor type 6 (Homo sapiens, UniProt P29350). Put plainly: Inhibition of GST-tagged human SHP1.
A short description of assay [7]: Inhibition of glycogen phosphorylase.

Receptor-type tyrosine-protein phosphatase F, sequence (P10586 whole entry): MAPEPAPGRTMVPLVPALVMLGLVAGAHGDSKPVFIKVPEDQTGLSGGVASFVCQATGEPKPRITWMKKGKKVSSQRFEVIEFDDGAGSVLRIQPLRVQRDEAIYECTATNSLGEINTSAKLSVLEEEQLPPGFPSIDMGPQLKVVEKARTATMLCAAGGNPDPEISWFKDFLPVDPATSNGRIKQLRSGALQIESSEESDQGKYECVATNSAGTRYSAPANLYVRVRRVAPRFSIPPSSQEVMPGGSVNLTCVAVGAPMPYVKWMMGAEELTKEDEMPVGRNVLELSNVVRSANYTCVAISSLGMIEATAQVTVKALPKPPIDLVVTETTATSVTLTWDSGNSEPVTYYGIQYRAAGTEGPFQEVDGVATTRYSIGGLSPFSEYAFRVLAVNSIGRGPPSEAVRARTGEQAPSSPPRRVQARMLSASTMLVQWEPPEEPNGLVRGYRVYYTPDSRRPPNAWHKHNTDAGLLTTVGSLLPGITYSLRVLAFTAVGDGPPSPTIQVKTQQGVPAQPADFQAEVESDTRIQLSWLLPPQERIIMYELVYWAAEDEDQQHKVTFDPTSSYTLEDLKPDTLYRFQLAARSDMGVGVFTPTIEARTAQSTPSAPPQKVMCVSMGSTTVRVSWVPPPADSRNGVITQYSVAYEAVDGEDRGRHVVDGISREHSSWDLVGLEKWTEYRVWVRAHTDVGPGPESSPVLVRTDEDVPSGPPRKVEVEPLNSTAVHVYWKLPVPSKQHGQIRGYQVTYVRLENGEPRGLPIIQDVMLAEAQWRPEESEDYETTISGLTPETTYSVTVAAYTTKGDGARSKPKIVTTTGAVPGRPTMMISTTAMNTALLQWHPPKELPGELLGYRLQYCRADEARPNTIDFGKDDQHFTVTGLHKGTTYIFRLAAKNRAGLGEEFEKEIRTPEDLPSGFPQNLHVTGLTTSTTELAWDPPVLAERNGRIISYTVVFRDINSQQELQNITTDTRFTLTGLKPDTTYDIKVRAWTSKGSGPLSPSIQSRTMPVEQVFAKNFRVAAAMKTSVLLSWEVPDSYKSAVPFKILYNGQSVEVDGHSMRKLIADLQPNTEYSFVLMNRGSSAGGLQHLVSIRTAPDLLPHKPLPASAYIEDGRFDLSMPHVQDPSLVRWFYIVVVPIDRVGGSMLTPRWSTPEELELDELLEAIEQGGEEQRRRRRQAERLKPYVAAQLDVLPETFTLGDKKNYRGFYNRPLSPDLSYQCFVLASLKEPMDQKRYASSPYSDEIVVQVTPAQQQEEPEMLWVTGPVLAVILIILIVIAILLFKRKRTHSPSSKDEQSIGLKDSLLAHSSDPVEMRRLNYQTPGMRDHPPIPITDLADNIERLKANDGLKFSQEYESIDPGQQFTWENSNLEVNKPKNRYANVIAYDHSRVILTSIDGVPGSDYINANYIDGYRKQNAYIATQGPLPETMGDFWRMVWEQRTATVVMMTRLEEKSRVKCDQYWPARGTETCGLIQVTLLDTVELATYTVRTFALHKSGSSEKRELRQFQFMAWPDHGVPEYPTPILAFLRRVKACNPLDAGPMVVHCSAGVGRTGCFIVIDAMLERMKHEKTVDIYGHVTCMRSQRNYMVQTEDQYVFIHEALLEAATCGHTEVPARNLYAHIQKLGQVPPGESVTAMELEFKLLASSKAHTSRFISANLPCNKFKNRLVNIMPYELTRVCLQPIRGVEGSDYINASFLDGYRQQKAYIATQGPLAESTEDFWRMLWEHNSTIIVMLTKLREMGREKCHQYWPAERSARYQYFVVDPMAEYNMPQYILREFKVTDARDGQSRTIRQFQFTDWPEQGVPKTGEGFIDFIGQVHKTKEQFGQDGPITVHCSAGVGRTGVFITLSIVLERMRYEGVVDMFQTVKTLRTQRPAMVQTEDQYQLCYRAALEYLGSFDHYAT
Tyrosine-protein phosphatase non-receptor type 6, sequence (P29350 whole entry): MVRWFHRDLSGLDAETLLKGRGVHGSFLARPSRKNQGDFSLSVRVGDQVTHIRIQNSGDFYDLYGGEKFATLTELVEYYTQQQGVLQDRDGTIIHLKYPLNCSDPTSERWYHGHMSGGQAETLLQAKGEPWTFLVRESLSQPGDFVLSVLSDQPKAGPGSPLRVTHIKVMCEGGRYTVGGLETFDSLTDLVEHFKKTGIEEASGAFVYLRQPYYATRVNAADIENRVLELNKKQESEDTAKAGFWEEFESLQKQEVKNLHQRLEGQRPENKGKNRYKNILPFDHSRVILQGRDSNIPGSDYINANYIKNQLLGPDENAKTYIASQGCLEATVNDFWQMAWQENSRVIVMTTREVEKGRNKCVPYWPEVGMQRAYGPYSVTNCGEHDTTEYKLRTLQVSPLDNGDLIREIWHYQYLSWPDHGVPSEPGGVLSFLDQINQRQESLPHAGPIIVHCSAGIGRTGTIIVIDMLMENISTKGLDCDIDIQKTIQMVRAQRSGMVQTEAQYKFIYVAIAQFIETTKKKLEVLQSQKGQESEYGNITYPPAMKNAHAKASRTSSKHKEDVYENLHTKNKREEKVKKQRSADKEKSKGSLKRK

In the case of `CNc1ncc2c(n1)C(C)(C)[C@@H]1CC[C@]3(C)[C@H](CC=C4[C@@H]5CC(C)(C)CC[C@]5(C(=O)O)CC[C@]43C)[C@@]1(C)C2`, it took 5.44 µM to reach half-maximal inhibition in assay [1] (IC50).
On the same count and under the same terms, to `CC1(C)CC[C@]2(C(=O)O)CC[C@]3(C)C(=CC[C@@H]4[C@@]5(C)C[C@@H](O)[C@@H](O)C(C)(C)[C@@H]5CC[C@]43C)[C@@H]2C1` belongs 14.3 µM.
In the case of `CC1(C)CC[C@]2(C(=O)O)CC[C@]3(C)C(=CC[C@@H]4[C@@]5(C)Cc6cnc(N)nc6C(C)(C)[C@@H]5CC[C@]43C)[C@@H]2C1`, in assay [2], the Ratio IC50 turned out to be 3.1. Also, the figures for the IC50 in assay [3] and in assay [1] were 5.51 µM and 1.78 µM, respectively.
Regarding `O=C(O)C(=O)c1ccc(OCc2ccc(COc3ccc(C(=O)C(=O)O)cc3)cc2)cc1`, in assay [2], the Ratio IC50 came out at 1.6. For the same compound, the IC50 in assay [3] worked out at 6.24 µM; in assay [1], 3.89 µM.
With `CC1(C)CC[C@]2(C(=O)O)CC[C@]3(C)C(=CC[C@@H]4[C@@]5(C)C[C@H](O)[C@H](O)C(C)(C)[C@@H]5CC[C@]43C)[C@@H]2C1` [AUGUSTIC ACID], it took 4.93 µM to reach half-maximal inhibition in assay [1] (IC50). This counts as single-digit micromolar.
Turning to `CC(=O)n1ncc2c1C(C)(C)[C@@H]1CC[C@]3(C)[C@H](CC=C4[C@@H]5CC(C)(C)CC[C@]5(C(=O)O)CC[C@]43C)[C@@]1(C)C2`, the Ratio IC50 in assay [2] worked out at 3.3. In addition, the IC50 in assay [3] turned out to be 4.93 µM; in assay [1], 1.48 µM.
In the same order, the values of `CC1(C)CC[C@]2(C(=O)O)CC[C@]3(C)C(=CC[C@@H]4[C@@]5(C)Cc6cnn(C(=O)c7ccncc7)c6C(C)(C)[C@@H]5CC[C@]43C)[C@@H]2C1` are 4.5, 3.62 µM and 0.81 µM.
As for `CC1(C)CC[C@]2(C(=O)O)CC[C@]3(C)C(=CC[C@@H]4[C@@]5(C)Cc6nccnc6C(C)(C)[C@@H]5CC[C@]43C)[C@@H]2C1`, the IC50 in assay [4] is > 40 µM; in assay [5], > 40 µM; in assay [6], > 40 µM; in assay [3], 8.31 µM; in assay [1], 1.79 µM. Besides, the Ratio IC50 in assay [2] stood at 4.6.
Consider `CC1(C)CC[C@]2(C(=O)O)CC[C@]3(C)C(=CC[C@@H]4[C@@]5(C)Cc6nc7ccccc7nc6C(C)(C)[C@@H]5CC[C@]43C)[C@@H]2C1`, for which the IC50 in assay [4] was > 40 µM; in assay [5] it was > 40 µM; in assay [6] it was > 40 µM; in assay [3], 5.88 µM; in assay [1], 1.43 µM. The Ratio IC50 in assay [2] was found to be 4.1.
With `CC1(C)CC[C@]2(C(=O)O)CC[C@]3(C)C(=CC[C@@H]4[C@@]5(C)Cc6cnn(C(=O)c7cccnc7)c6C(C)(C)[C@@H]5CC[C@]43C)[C@@H]2C1`, in assay [2], the Ratio IC50 amounted to 6.9. The half-maximal inhibitory concentration (IC50) in assay [3] was determined as 4.39 µM; in assay [1] it was 0.64 µM.
In the case of `CC1(C)CC[C@]2(C(=O)O)CC[C@]3(C)C(=CC[C@@H]4[C@@]5(C)Cc6cnoc6C(C)(C)[C@@H]5CC[C@]43C)[C@@H]2C1`, the IC50 was > 40 µM in assay [4]; > 40 µM in assay [5]; > 40 µM in assay [6]; 8.44 µM in assay [3]; 2.6 µM in assay [1]. The Ratio IC50 in assay [2] amounted to 3.3.
Turning to `CC1(C)CC[C@]2(C(=O)O)CC[C@]3(C)C(=CC[C@@H]4[C@@]5(C)Cc6sc(N)nc6C(C)(C)[C@@H]5CC[C@]43C)[C@@H]2C1`, the IC50 is > 40 µM in assay [4]; > 40 µM in assay [5]; > 40 µM in assay [6]; 6.44 µM in assay [3]; 1.92 µM in assay [1]. For the same compound, the Ratio IC50 in assay [2] was found to be 3.4.
For the compound `CC1(C)CC[C@]2(C(=O)O)CC[C@]3(C)C(=CC[C@@H]4[C@@]5(C)Cc6cn[nH]c6C(C)(C)[C@@H]5CC[C@]43C)[C@@H]2C1`, the concentration for half-maximal inhibition (IC50) in assay [4] is > 40 µM; in assay [5] it was > 40 µM; in assay [6], > 40 µM; in assay [3] it was 5.99 µM; in assay [1], 1.65 µM. In addition, the Ratio IC50 in assay [2] was 3.6.
As for `CC1(C)CC[C@]2(C(=O)O)CC[C@]3(C)C(=CC[C@@H]4[C@@]5(C)Cc6cncnc6C(C)(C)[C@@H]5CC[C@]43C)[C@@H]2C1`, the half-maximal inhibitory concentration (IC50) was > 40 µM in assay [4]; > 40 µM in assay [5]; > 40 µM in assay [6]; 8.19 µM in assay [3]; 2.73 µM in assay [1]. The Ratio IC50 in assay [2] amounted to 3.
On to `CC1(C)CC[C@]2(C(=O)O)CC[C@]3(C)C(=CC[C@@H]4[C@@]5(C)Cc6c([nH]c7ccccc67)C(C)(C)[C@@H]5CC[C@]43C)[C@@H]2C1`, for which the Ratio IC50 in assay [2] came out at 2.6. In addition, the IC50 in assay [3] stood at 1.6 µM; in assay [1], 0.61 µM.
`CC1(C)CC[C@]2(C(=O)O)CC[C@]3(C)C(=CC[C@@H]4[C@@]5(C)Cc6cnn(-c7ccccc7)c6C(C)(C)[C@@H]5CC[C@]43C)[C@@H]2C1`: the IC50 in assay [4] was > 40 µM; in assay [5], > 40 µM; in assay [6], > 40 µM; in assay [3], 3.8 µM; in assay [1], 1.39 µM. Also, in assay [2], the Ratio IC50 turned out to be 2.7.
As to `Cc1ncc2c(n1)C(C)(C)[C@@H]1CC[C@]3(C)[C@H](CC=C4[C@@H]5CC(C)(C)CC[C@]5(C(=O)O)CC[C@]43C)[C@@]1(C)C2`, the Ratio IC50 in assay [2] turned out to be 2.5. Further, the 50% inhibitory concentration (IC50) in assay [3] is 6.5 µM; in assay [1], 2.61 µM.
On to `CC1(C)CC[C@]2(C(=O)O)CC[C@]3(C)C(=CC[C@@H]4[C@@]5(C)C[C@@H](O)[C@H](O)C(C)(C)[C@@H]5CC[C@]43C)[C@@H]2C1` [MASLINIC ACID], for which the concentration for half-maximal inhibition (IC50) was > 40 µM in assay [4]; > 40 µM in assay [5]; > 40 µM in assay [6]; 19.5 µM in assay [3]; 5.93 µM in assay [1]; 28 µM in assay [7]. Moreover, in assay [2], the Ratio IC50 was determined as 3.3.
For `CCCCCC(=O)n1ncc2c1C(C)(C)[C@@H]1CC[C@]3(C)[C@H](CC=C4[C@@H]5CC(C)(C)CC[C@]5(C(=O)O)CC[C@]43C)[C@@]1(C)C2`, the Ratio IC50 in assay [2] worked out at 3.2. The half-inhibitory concentration (IC50) in assay [3] amounted to 5.56 µM; in assay [1], 1.75 µM.
